In US20230167088A1, “1-PYRAZINYLPYRAZOLYL-3-OXYALKYL ACIDS AND THEIR DERIVATIVES, AND THEIR USE FOR CONTROL OF UNDESIRED PLANT GROWTH” (BAYER AKTIENGESELLSCHAFT, priority 2020, published 2023):

Assays:
POLCO [1] = assay: Herbicidal post-emergence action 1a (greenhouse pots, visual rating); assay type: in vivo, Polygonum convolvulus; conditions: visual rating about 3 weeks after treatment
Method in brief: (§1)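 Weeds and crops sown in sandy loam in greenhouse pots were sprayed post-emergence at the one-leaf stage (2–3 weeks after sowing) with WP or EC formulations plus 0.5% additive at 600 l/ha water, 320 and/or 80 g/ha. About 3 weeks later damage was rated visually against untreated controls (0% = no effect, 100% = dead).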

MATIN = assay: Herbicidal pre-emergence action 2a (greenhouse pots, visual scoring); assay type: in vivo, Matricaria inodora; conditions: dosage 320 g/ha, visual scoring after about 3 weeks vs untreated controls
Method in brief: (§2)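 Percent effect (0% like control, 100% plants died) was scored by eye roughly 3 weeks post-application. Formulated compound went onto the soil covering freshly sown seeds in water at 600 l/ha with 0.5% additive; dose 320 g/ha and/or 80 g/ha.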

PHBPU = assay: as above; assay type: in vivo, Pharbitis purpurea; conditions: dosage 320 g/ha, visual scoring after about 3 weeks vs untreated controls
Method in brief: as §2

VERPE = assay: Herbicidal post-emergence action 1a (greenhouse pots, visual rating); assay type: in vivo, Veronica persica; conditions: visual rating about 3 weeks after treatment
Method in brief: as §1

ALOMY [2] = assay: as above; assay type: in vivo, Alopecurus myosuroides; conditions: rated visually about 3 weeks after treatment, 100% = plants have died, 0% = like control plants
Method in brief: as §1

STEME [3] = assay: Herbicidal pre-emergence action 2a (greenhouse pots, visual scoring); assay type: in vivo, Stellaria media; conditions: dosage 320 g/ha, visual scoring after about 3 weeks vs untreated controls
Excerpt: (§3) [table] a) Seeds of monocotyledonous and dicotyledonous weed plants and crop plants are placed in plastic or organic plant pots and covered with soil. The compounds of the invention, formulated in the form of wettable powders (WP) or as emulsion concentrates (EC), are then applied onto the surface of the covering soil as aqueous suspension or emulsion with addition of 0.5% additive at a water application rate of 600 1/ha (converted). After the treatment, the pots are placed in a greenhouse and kept under good growth conditions for the trial plants. After about 3 weeks, the effect of the preparations is scored visually in comparison with untreated controls as percentages. For example, 100% activity=the plants have died, 0% activity=like control plants. Tables B1 to B15 below show the effects of selected compounds of the general formula (I) according to Tables 1 and 2 on various harmful plants and an application rate corresponding to 320 g/ha and/or 80 g/ha, which were obtained by the experimental procedure mentioned above.

STEME [4] = assay: Herbicidal post-emergence action 1a (greenhouse pots, visual rating); assay type: in vivo, Stellaria media; conditions: rated visually about 3 weeks after treatment, 100% = plants have died, 0% = like control plants
Method in brief: as §1

AMARE = assay: Herbicidal pre-emergence action 2a (greenhouse pots, visual scoring); assay type: in vivo, Amaranthus retroflexus; conditions: dosage 320 g/ha, visual scoring after about 3 weeks vs untreated controls
Method in brief: as §2

HORMU = assay: as above; assay type: in vivo, Hordeum murinum; conditions: dosage 320 g/ha, visual scoring after about 3 weeks vs untreated controls
Excerpt: as §3

SETVI [5] = assay: Herbicidal post-emergence action 1a (greenhouse pots, visual rating); assay type: in vivo, Setaria viridis; conditions: rated visually about 3 weeks after treatment, 100% = plants have died, 0% = like control plants
Method in brief: as §1

SETVI [6] = assay: Herbicidal pre-emergence action 2a (greenhouse pots, visual scoring); assay type: in vivo, Setaria viridis; conditions: dosage 320 g/ha, visual scoring after about 3 weeks vs untreated controls
Method in brief: as §2

ALOMY [7] = assay: as above; assay type: in vivo, Alopecurus myosuroides; conditions: dosage 320 g/ha, visual scoring after about 3 weeks
Method in brief: as §2

POLCO [8] = assay: as above; assay type: in vivo, Polygonum convolvulus; conditions: dosage 320 g/ha, visual scoring after about 3 weeks vs untreated controls
Method in brief: as §2

ECHCG = assay: Herbicidal pre-emergence action 2b (doubly sown, 1280 g/ha); assay type: in vivo, Echinochloa crus-galli; conditions: doubly sown pots, dosage 1280 g/ha, visual scoring after about 3 weeks
Method in brief: (§4)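 Read-out: visual percentage damage relative to untreated controls, scored after roughly 3 weeks in the greenhouse, where 100% means plants died and 0% equals control. Seeds were sown two species per pot in sandy loam and covered before the compounds, formulated as WP or EC with 0.5% additive, were sprayed onto the soil at 600 L/ha.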

STEME [9] = assay: as above; assay type: in vivo, Stellaria media; conditions: doubly sown pots, dosage 1280 g/ha, visual scoring after about 3 weeks
Method in brief: as §4

ABUTH = assay: Herbicidal post-emergence action 1b (twin sowing, 1280 g/ha); assay type: in vivo, Abutilon theophrasti; conditions: dosage 1280 g/ha, visual rating about 3 weeks after treatment
Method in brief: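 Sow paired weed species in sandy loam pots and grow in the greenhouse; at the one-leaf stage (2–3 weeks) spray green parts with compound suspension or emulsion containing 0.5% additive at 600 L water/ha; keep about 3 weeks, then score damage visually relative to untreated plants.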

| Structure (SMILES) | Post-emergence action against POLCO in % (POLCO [1]; dosage 80 g/ha) [%] | Post-emergence action against POLCO in % (POLCO [1]; dosage 320 g/ha) [%] | Pre-emergence action against MATIN in % (MATIN) [%] | Pre-emergence action against PHBPU in % (PHBPU) [%] | Post-emergence action against VERPE in % (VERPE; dosage 80 g/ha) [%] | Post-emergence action against VERPE in % (VERPE; dosage 320 g/ha) [%] | Post-emergence action against ALOMY in % (ALOMY [2]; Dosage 80 g/ha) [%] | Post-emergence action against ALOMY in % (ALOMY [2]; Dosage 320 g/ha) [%] | Pre-emergence action against STEME in % (STEME [3]) [%] | Post-emergence action against STEME in % (STEME [4]; Dosage 80 g/ha) [%] | Post-emergence action against STEME in % (STEME [4]; Dosage 320 g/ha) [%] | Pre-emergence action against AMARE in % (AMARE) [%] | Pre-emergence action against HORMU in % (HORMU) [%] | Post-emergence action against SETVI in % (SETVI [5]; Dosage 80 g/ha) [%] | Post-emergence action against SETVI in % (SETVI [5]; Dosage 320 g/ha) [%] | Pre-emergence action against SETVI in % (SETVI [6]) [%] | Pre-emergence action against ALOMY in % (ALOMY [7]) [%] | Pre-emergence action against POLCO in % (POLCO [8]) [%] | other results |
| --- | --- | --- | --- | --- | --- | --- | --- | --- | --- | --- | --- | --- | --- | --- | --- | --- | --- | --- | --- |
| COC(=O)COc1nn(-c2cnccn2)c(-c2cncc(F)c2)c1Br [Example I-07] | 80 | 90 | 90 | 90 | 90 | 90 | 90 | 100 | 100 | 90 | 90 | 100 | 90 | 80 | 80 | 100 | 100 | 90 | – |
| COC(=O)C(C)Oc1nn(-c2cnccn2)c(-c2cncc(F)c2)c1Br (racemic) [Example I-08] | – | 100 | 90 | 90 | 90 | 90 | 100 | 100 | 100 | 90 | 90 | 100 | 100 | 80 | 80 | 100 | 100 | 100 | – |
| COC(=O)C(C)Oc1nn(-c2cnccn2)c(-c2ccnc(F)c2)c1Cl (racemic) [Example I-05] | 80 | – | – | 80 | 80 | 90 | 100 | 100 | 100 | – | 80 | 100 | 90 | – | 80 | 90 | 100 | – | Pre-emergence action at 1280 g/ha against ECHCG in % (ECHCG): 100%; Pre-emergence action at 1280 g/ha against STEME in % (STEME [9]): 100%; Post-emergence action at 1280 g/ha against ABUTH in % (ABUTH): 90% |
